Our source for the GC-EAD activity values is patent publication US9497963B2, “Methods and compositions for control of gypsy moth, Lymantria dispar” (Simon Fraser University, priority 2008, dated 2016).

One assay deals with male gypsy moth antenna. In words: Coupled gas chromatographic-electroantennographic detection (GC-EAD). Details: species or system Lymantria dispar. Conditions: EAD peak size and shape (sharp/broad). From the text: In GC-EAD assays, the analyte is processed by gas chromatography (GC). The column effluent is split, such that molecules of each chromatographic peak arrive simultaneously at the flame ionization detector of the GC and at an anectomized but otherwise intact insect antenna as the biological detector. This procedure detects specific compounds in the analyte that elicit an electrical potential from the antenna.
For GC-EAD recordings, an antenna was carefully dislodged from a male moth's head, and the antennal base placed into the opening of a glass capillary electrode (0.58 mm ID×65 mm length) (A-M Systems, Inc., Carlsborg, Wash., USA) filled with saline solution. The tip of the antenna was removed by spring microscissors (Fine Science Tools Inc., North Vancouver, British Columbia, Canada) and then placed into the opening of the recording electrode mounted on a portable micromanipulator and positioned in front of a constant stream of warm air (Praxair Canada Inc., Mississauga, Ontario, Canada) which delivered the GC column eluent. […] Identical retention times of compounds detected by the flame ionization detector of the GC and by the insect antenna allowed assignment of antennal responses to specific compounds in the eluent.
`CCOc1ccccc1OC` [3a{1,2}, 1-ethoxy-2-methoxy benzene]: the GC-EAD activity entry is given as “++ sharp”. The same measure, in the same setting: under `CCCOc1ccccc1OC` [3a{1,3}, 1-methoxy-2-propoxy benzene] stands “+ sharp”; under `CCCCOc1ccccc1OC` [3a{1,4}, 1-butoxy-2-methoxy benzene], “Trace”; under `COc1ccccc1OCCC(C)C` [3a{1,5}, 1-methoxy-2-(3-methyl-butoxy) benzene], “+ broad”. In the case of `C=CCOc1ccccc1OC` [3a{1,6}, 1-allyloxy-2-methoxy benzene], the GC-EAD activity result was “+ sharp”. For `CCCOc1ccccc1OCC` [3a{2,3}, 1-ethoxy-2-propoxy benzene], the GC-EAD activity result is reported as “+ sharp”. On to `CCCCOc1ccccc1OCC` [3a{2,4}, 1-ethoxy-2-butoxy benzene], for which the GC-EAD activity entry was “++ sharp”. As to `CCOc1ccccc1OCCC(C)C` [3a{2,5}, 1-ethoxy-2-(3-methyl-butoxy) benzene], the GC-EAD activity entry is “++ sharp”. As to `C=CCOc1ccccc1OCC` [3a{2,6}, 1-allyloxy-2-ethoxy benzene], the GC-EAD activity result is on record as “+ broad”. The same measure, in the same setting: to `CCCCOc1ccccc1OCCC` [3a{3,4}, 1-butoxy-2-propoxy benzene] belongs “++ sharp”. Turning to `CCCOc1ccccc1OCCC(C)C` [3a{3,5}, 1-(3-methyl-butoxy)-2-propoxy benzene], the GC-EAD activity entry is reported as “+ broad”. With `C=CCOc1ccccc1OCCC` [3a{3,6}, 1-allyloxy-2-propoxybenzene], the GC-EAD activity entry is “++ broad”. For the compound `CCCCOc1ccccc1OCCC(C)C` [3a{4,5}, 1-butoxy-2-(3-methyl-butoxy) benzene], the GC-EAD activity entry is given as “+ broad”. Turning to `C=CCOc1ccccc1OCCCC` [3a{4,6}, 1-allyloxy-2-butoxybenzene], the GC-EAD activity result is “++ broad”. On to `C=CCOc1ccccc1OCCC(C)C` [3a{5,6}, 1-allyloxy-2-isopentoxybenzene], for which the GC-EAD activity entry is reported as “+ broad”. Consider `CCOc1cccc(OC)c1` [3b{1,2}, 1-ethoxy-3-methoxy benzene], for which the GC-EAD activity result was “Trace”.

For `CCCOc1cccc(OC)c1` [3b{1,3}, 1-methoxy-3-propoxy benzene], the GC-EAD activity result was “Trace”. Consider `CCCCOc1cccc(OC)c1` [3b{1,4}, 1-butoxy-3-methoxy benzene], for which the GC-EAD activity entry is reported as “None”. For the compound `COc1cccc(OCCC(C)C)c1` [3b{1,5}, 1-methoxy-3-(3-methyl-butyloxy) benzene], the GC-EAD activity result is reported as “None”. The same measure, in the same setting: under `CCCOc1cccc(OCC)c1` [3b{2,3}, 1-ethoxy-3-propoxy benzene] stands “None”; under `CCCCOc1cccc(OCC)c1` [3b{2,4}, 1-butoxy-3-ethoxy benzene], “None”.

On to `CCOc1cccc(OCCC(C)C)c1` [3b{2,5}, 1-ethoxy-3-(3-methyl-butyloxy) benzene], for which the GC-EAD activity result was “None”.

In the case of `CCCCOc1cccc(OCCC)c1` [3b{3,4}, 1-butoxy-3-propoxy benzene], the GC-EAD activity result is “None”. Turning to `CCCOc1cccc(OCCC(C)C)c1` [3b{3,5}, 1-(3-methyl-butyloxy)-3-propoxy benzene], the GC-EAD activity result is “None”. For the compound `CCCCOc1cccc(OCCC(C)C)c1` [3b{4,5}, 1-butoxy-3-(3-methyl-butyloxy) benzene], the GC-EAD activity entry is “None”. For the compound `C=CCOc1ccc(OC)cc1` [3c{1,6}, 1-allyloxy-4-methoxybenzene], the GC-EAD activity entry is “Trace”. Consider `C=CCOc1ccc(OCC)cc1` [3c{2,6}, 1-allyloxy-4-ethoxybenzene], for which the GC-EAD activity result is listed as “Trace”. Same read-out and setting: under `C=CCOc1ccc(OCCCC)cc1` [3c{4,6}, 1-allyloxy-4-butoxy benzene] stands “None”; under `C=CCOc1ccc(OCCC(C)C)cc1` [3c{5,6}, 1-allyloxy-4-isopentoxybenzene], “None”.

Staying with this assay, now noted: male gypsy moth antenna; starting phenols 4, diethers 5 and dihydropyrans 6c from Claisen rearrangement chemistry.
With `C=CCc1cccc(OC)c1O` [4a{1}, 2-allyl-6-methoxy phenol], the GC-EAD activity result was “++ sharp”.

Take `C=CCc1cccc(OCC)c1O` [4a{2}, 2-allyl-6-ethoxy phenol]: the GC-EAD activity entry is given as “+ sharp”. As for `C=CCc1cccc(OCCC)c1O` [4a{3}, 2-allyl-6-propoxy phenol], the GC-EAD activity entry is “+ broad”.

For `C=CCc1cccc(OCCCC)c1O` [4a{4}, 2-allyl-6-butoxy phenol], the GC-EAD activity result was “Trace”. In the case of `C=CCc1cccc(OCCC(C)C)c1O` [4a{5}, 2-allyl-6-(3-methyl-butoxy) phenol], the GC-EAD activity entry is reported as “Trace”.

Consider `C=CCc1cc(OC)ccc1O` [4c{1}, 2-allyl-4-methoxy phenol], for which the GC-EAD activity entry was “++ sharp”. For `C=CCc1cc(OCC)ccc1O` [4c{2}, 2-allyl-4-ethoxy phenol], the GC-EAD activity entry is on record as “+ sharp”.

In the case of `C=CCc1cc(OCCC)ccc1O` [4c{3}, 2-allyl-4-propoxy phenol], the GC-EAD activity result is “Trace”.

For the compound `C=CCc1cc(OCCCC)ccc1O` [4c{4}, 2-allyl-4-butoxy phenol], the GC-EAD activity entry is “None”. Still for that read-out and setting: to `C=CCc1cc(OCCC(C)C)ccc1O` [4c{5}, 2-allyl-4-(3-methyl-butoxy) phenol] belongs “None”; to `C=CCc1cccc(OC)c1OCC` [5a{2, 1}], “Trace”; to `C=CCc1cccc(OC)c1OCCC` [5a{3, 1}], “+ broad”. As for `C=CCc1cccc(OCC)c1OCCC` [5a{3, 2}], the GC-EAD activity result is recorded as “+ broad”. Turning to `C=CCc1cccc(OC)c1OCCCC` [5a{4, 1}], the GC-EAD activity entry was “None”. As to `C=CCc1cccc(OCCC)c1OCCCC` [5a{4, 3}], the GC-EAD activity entry is “None”. Turning to `C=CCc1cccc(OC)c1OCCC(C)C` [5a{5, 1}], the GC-EAD activity entry was “Trace”. Regarding `C=CCc1cccc(OCC)c1OCCC(C)C` [5a{5, 2}], the GC-EAD activity result is on record as “None”. On to `C=CCc1cccc(OCCC)c1OCCC(C)C` [5a{5, 3}], for which the GC-EAD activity entry is “None”. Regarding `C=CCc1cccc(OCCCC)c1OCCC(C)C` [5a{5, 4}], the GC-EAD activity result is given as “None”. `C=CCOc1cccc(CC=C)c1OCCC(C)C` [5a{5, 6}]: the GC-EAD activity result is “None”.

Take `COc1ccc2c(c1)CC(C)O2` (stereo not drawn) [6c{1}, 5-methoxy-2-methyl-2,3-dihydro benzofuran]: the GC-EAD activity result is “+ sharp”. In the case of `CCOc1ccc2c(c1)CC(C)O2` (stereo not drawn) [6c{2}, 5-ethoxy-2-methyl-2,3-dihydro benzofuran], the GC-EAD activity result is “Trace”. As for `CCCOc1ccc2c(c1)CC(C)O2` (stereo not drawn) [6c{3}, 5-propoxy-2-methyl-2,3-dihydro benzofuran], the GC-EAD activity result is given as “Trace”. Consider `CCCCOc1ccc2c(c1)CC(C)O2` (stereo not drawn) [6c{4}, 5-butoxy-2-methyl-2,3-dihydro benzofuran], for which the GC-EAD activity entry is on record as “None”. Take `CC(C)CCOc1ccc2c(c1)CC(C)O2` (stereo not drawn) [6c{5}, 5-(3-methyl-butoxy)-2-methyl-2,3-dihydro benzofuran]: the GC-EAD activity result is given as “None”.
